Source: paper PMC12730265, “Combinatorial Antimicrobial Effects of Imidazolium-Based Ionic Liquids and Antifungals on Model Fungal Organisms” (Biomolecules, 2025)
Where two headings read alike, the source gives them in different places.

How the values were obtained:
Type in all cases: cell-based
C. albicans [1] = assay: MIC50 by microbroth dilution; settings: Candida albicans, 48 h
Procedure: (§1) A single colony was picked from each streak to prepare overnight in 5 mL fresh YPD broth and placed into a tilted rotating incubator set at 30 °C and 40 rpm overnight. After ~16–20 h, a fresh dilution in media (1:200) was made and used for the experiment. […] Finally, diluted culture was added to each well of a sterile 96-well plate containing serially diluted aliquots of each RTIL to a total volume of 100 µL. The plate was incubated at 30 °C overnight with shaking for 24 and 48 h. At both timepoints, the yeast was manually resuspended in the plate by pipetting and we measured the OD600 using a Spectramax M5 multimode plate reader (Molecular Devices, San Jose, CA, USA).
(§2) The four species of yeast tested included three common lab strains of non-pathogenic yeast strains, S. boulardii, S. cerevisiae, and S. pombe, and one common human pathogen, C. albicans.

S. boulardii = assay: MIC50 by microbroth dilution; settings: Saccharomyces cerevisiae
Procedure: as §1, §2

S. cerevisiae [2] = assay: MIC50 by microbroth dilution; settings: Saccharomyces cerevisiae
Procedure: as §1, §2

S. pombe = assay: MIC50 by microbroth dilution; settings: Schizosaccharomyces pombe
Procedure: as §1, §2

S. cerevisiae [3] = assay: Kirby–Bauer disk diffusion assay on IL-containing YPD plates; settings: 100 = no growth on plate
Procedure: (§3) Assessment of fungal growth on YPD plates with AFs + ILs served as an indicator for the combined efficacy of treatment of ILs and AFs. YPD agar plates were made with addition of increasing concentrations of [HMIM]Cl at 0, 2.5, 6.25, and 25 mM or [OMIM]Cl at 0, 0.25, 0.625, and 2.5 mM. Plates solidified and dried on bench for 24 h before use. IN total, 400 μL of S. cerevisiae or C. albicans liquid culture at mid-log phase OD600 0.5 was spread using sterile glass beads to achieve even distribution. Following addition of culture, the plates were allowed to dry for 30 min before the addition of antifungal disks. Antifungal-infused disks were prepared using the stock solutions of solubilized antibiotics; 15 μL of each of the 4 azole antifungals at stock concentrations was pipetted onto a sterile 6 mm cellulose disk (BD). […] After plate drying was complete, sterile forceps were used to transfer the disks to the media, and the plate was grown upright in an incubator overnight at 30 °C. The following day, photographs were taken of the plates to visualize the zone of inhibition (ZOI) created by the combined treatment. Adobe Illustrator 2023 CC was used to perform digital measurements of ZOI diameters.
(§4) To assess the potential for combinatorial effects of ILs and AFs in yeast, Kirby–Bauer disk diffusion assays were performed for C. albicans and S. cerevisiae for [HMIM]Cl and [OMIM]Cl with all four AFs. […] The addition of 6 mm cellulose disks infused with equal volumes of solubilized AFs to the plates occurred after plating of C. albicans or S. cerevisiae, allowing for growth for 48 h at 23 °C, at which point the plates were evaluated for the establishment of zones of inhibition (ZOI). Digital pictures were acquired of all plates, and measurements of ZOI diameter were performed digitally as described in the Methods. […] With progressively increasing amounts of both [HMIM]Cl and [OMIM]Cl, ZOIs increased for all Afs, including Fluconazole and Itraconazole, which appear to be ineffective without IL in the Kirby–Bauer disk assay. Experiments were performed in triplicate and ZOIs were measured for all plates.
Similar experiments testing the combinatorial effects of [HMIM]Cl or [OMIM]Cl were performed on S. cerevisiae using Kirby–Bauer disk assays and quantified for changes in ZOI (Appendix Figure A1). ZOI measurements (mm) from both C. albicans and S. cerevisiae were compiled, and the averages are shown numerically as well as with shading and plotted in Figure 3. […] Finally, at intermediate concentrations of both [HMIM]Cl and [OMIM]Cl, a combinatorial effect of IL + AF was evident for all four AFs in S. cerevisiae, similar to observations in C. albicans.

C. albicans [4] = assay: as above; settings: for inhibition of C. albicans growth around disk: absence of added IL
Procedure: as §3, §4

[5] = 50% growth after 48 h in YPD media, OD600, read-out: MIC50

MIC50 (C. albicans [1]; [5]) [mg/L] | MIC50 (S. boulardii; [5]) [mg/L] | MIC50 (S. cerevisiae [2]; [5]) [mg/L] | MIC50 (S. pombe; [5]) [mg/L] | SMILES | Zone of inhibition (ZOI) diameter (S. cerevisiae [3]; [HMIM]Cl 0 mM in plate) [mm] | Zone of inhibition (ZOI) diameter (S. cerevisiae [3]; [HMIM]Cl 2.5 mM in plate) [mm] | Zone of inhibition (ZOI) diameter (S. cerevisiae [3]; [HMIM]Cl 6.25 mM in plate) [mm] | Zone of inhibition (ZOI) diameter (S. cerevisiae [3]; [HMIM]Cl 25 mM in plate) [mm] | Zone of inhibition (ZOI) diameter (S. cerevisiae [3]; [OMIM]Cl 0 M in plate) [mm] | Zone of inhibition (ZOI) diameter (S. cerevisiae [3]; [OMIM]Cl 0.25 mM in plate) [mm] | Zone of inhibition (ZOI) diameter (S. cerevisiae [3]; [OMIM]Cl 0.625 mM in plate) [mm] | Zone of inhibition (ZOI) diameter (S. cerevisiae [3]; [OMIM]Cl 2.5 mM in plate) [mm] | Zone of inhibition (ZOI) diameter (C. albicans [4]; [HMIM]Cl 0 mM in plate) [mm] | Zone of inhibition (ZOI) diameter (C. albicans [4]; [HMIM]Cl 2.5 mM in plate) [mm] | Zone of inhibition (ZOI) diameter (C. albicans [4]; [HMIM]Cl 6.25 mM in plate) [mm] | Zone of inhibition (ZOI) diameter (C. albicans [4]; [HMIM]Cl 25 mM in plate) [mm] | Zone of inhibition (ZOI) diameter (C. albicans [4]; [OMIM]Cl 0 M in plate) [mm] | Zone of inhibition (ZOI) diameter (C. albicans [4]; [OMIM]Cl 0.25 mM in plate) [mm] | Zone of inhibition (ZOI) diameter (C. albicans [4]; [OMIM]Cl 0.625 mM in plate) [mm] | Zone of inhibition (ZOI) diameter (C. albicans [4]; [OMIM]Cl 2.5 mM in plate) [mm] | other results
1 | 0.5 | 0.5 | 0.5 | CCC(C)n1ncn(-c2ccc(N3CCN(c4ccc(OCC5COC(Cn6cncn6)(c6ccc(Cl)cc6Cl)O5)cc4)CC3)cc2)c1=O (stereo not shown) [Itraconazole] | 8 | 9.33 | 14 | 100 | 8 | 9 | 21.67 | 100 | 0 | 0 | 12.67 | 16 | 0 | 0 | 16.33 | 26.33 | inhibition of C. albicans growth around disk (C. albicans [4]): no inhibition
 |  |  |  | CCn1cc[n+](C)c1 [[EMIM]Cl, 1-ethyl-3-methylimidazolium chloride] |  |  |  |  |  |  |  |  |  |  |  |  |  |  |  |  | MIC50 (C. albicans [1]): > 100 mM; MIC50 (S. boulardii; 48 h): 25 mM; MIC50 (S. cerevisiae [2]; 48 h): 50 mM; MIC50 (S. pombe; 48 h): 50 mM
8 | 4 | 4 | 4 | OC(Cn1cncn1)(Cn1cncn1)c1ccc(F)cc1F [Fluconazole] | 34 | 36 | 43.33 | 100 | 34 | 37.33 | 69 | 100 | 0 | 0 | 31.33 | 47.33 | 0 | 0 | 29.33 | 70.33 | inhibition of C. albicans growth around disk (C. albicans [4]): no inhibition
1 | 0.5 | 0.5 | 0.5 | CC(=O)N1CCN(c2ccc(OCC3COC(Cn4ccnc4)(c4ccc(Cl)cc4Cl)O3)cc2)CC1 (stereo not shown) [Ketoconazole] | 25 | 27.33 | 63 | 100 | 25 | 29.67 | 57.33 | 100 | 13.67 | 17 | 29 | 47.67 | 13.67 | 19.33 | 28 | 57.33 | inhibition of C. albicans growth around disk (C. albicans [4]): minimal inhibition
